Measurements reported in the supplement of paper PMC10307832.

Columns and labels:
Experiment in all cases: relative viability (nuclei count vs DMSO), 5 days (fraction); higher = more cells survive
[1] = compound: C(C(=O)C(=O)O)Br [Bromopyruvate] + CC(C)C[C@H](NC(=O)[C@H](Cc1ccccc1)NC(=O)c1cnccn1)B(O)O [Bortezomib] (partner 0.002 µM)
Method in brief: (§1)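 Relative viability was taken as the ratio of nuclei in treated wells to nuclei in vehicle wells. Lung cancer cell lines in 1536-well plates received compounds by pin tool one day after seeding, either one drug alone or a fixed anchor-drug dose plus five library-drug doses (not always all listed) in √10 steps. Nuclei were counted on 4× images after 5 days of treatment, and values are medians of duplicate plates.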

[2] = compound: C(C(=O)C(=O)O)Br [Bromopyruvate] + CCNC(=O)c1noc(-c2cc(C(C)C)c(O)cc2O)c1-c1ccc(CN2CCOCC2)cc1 [Luminespib] (partner 0.01 µM)
Method in brief: as §1

[3] = compound: C(C(=O)C(=O)O)Br [Bromopyruvate] + C[C@@H](Oc1cc(-c2cnn(C3CCNCC3)c2)cnc1N)c1c(Cl)ccc(F)c1Cl [Crizotinib] (partner 1 µM)
Method in brief: as §1

[4] = compound: C(C(=O)C(=O)O)Br [Bromopyruvate] + O=C(CCCCCCC(=O)Nc1ccccc1)NO [Vorinostat] (partner 1 µM)
Method in brief: as §1

Cell Line: UMC-11
- relative viability ([1]; first compound 1 µM): 0.817
- relative viability ([1]; first compound 3.162 µM): 0.79
- relative viability ([1]; first compound 10 µM): 0.846
- relative viability ([1]; first compound 31.62 µM): 0.645
- relative viability ([1]; first compound 100 µM): 0.721
- relative viability ([2]; first compound 1 µM): 0.959
- relative viability ([2]; first compound 3.162 µM): 0.998
- relative viability ([2]; first compound 10 µM): 0.987
- relative viability ([2]; first compound 31.62 µM): 1.05
- relative viability ([2]; first compound 100 µM): 1.06
- relative viability ([3]; first compound 1 µM): 0.727
- relative viability ([3]; first compound 3.162 µM): 0.655
- relative viability ([3]; first compound 10 µM): 0.505
- relative viability ([3]; first compound 31.62 µM): 0.509
- relative viability ([3]; first compound 100 µM): 0.52
- relative viability ([4]; first compound 1 µM): 0.479
- relative viability ([4]; first compound 3.162 µM): 0.357
- relative viability ([4]; first compound 10 µM): 0.289
- relative viability ([4]; first compound 31.62 µM): 0.274
- relative viability ([4]; first compound 100 µM): 0.2
